Results on four compounds are retold here after BindingDB's records for doi:10.1021/jm058046w (Martin-Luther-University Halle-Wittenberg, 2006).

A short description of this data set: Cytotoxicity against mouse MDR1 transfected L5178YvMDR cell line.
Take `CN1C2C3C4N(C)C5C(C1[C@]5(CO)[C@H]3c1ccccc1)[C@@H](c1ccccc1)[C@@]24CO` [1,7-dihydroxymethyl-3,9-dimethyl-6,12-diphenyl-3,9-diazahexacyclo[6.4.0.0 2.7.0 4.11.0. 5.10]dodecane]: the IC50 – broadly, the concentration at which inhibition is half-maximal – stood at 7.5 µM.
`O=C(Oc1ccccc1)N1C2C3C4N(C(=O)Oc5ccccc5)C5C(C1[C@]5(CO)[C@H]3c1ccccc1)[C@@H](c1ccccc1)[C@@]24CO` [1,7-dihydroxymethyl-6,12-diphenyl-3,9-diphenoxycarbonyl-3,9-diazahexacyclo[6.4.0.0(2.7)0(4.11)0(5.10)]dodecane] gave an IC50 of 21 µM.
`CC(C)(C)OC(=O)N1C2C3C4N(C(=O)OC(C)(C)C)C5C(C1[C@]5(CO)[C@H]3c1ccccc1)[C@@H](c1ccccc1)[C@@]24CO` [3,9-di(tert.)butoxycarbonyl-1,7-dihydroxymethyl-6,12-diphenyl-3,9-diazahexacyclo[6.4.0.0(2.7)0(4.11)0(5.10)]dodecane]: the midpoint of inhibition, the IC50, lay at 3.2 µM.
Under `OC[C@]12C3C4C1N(Cc1ccccc1)C1C(C(N3Cc3ccccc3)[C@]1(CO)[C@H]4c1ccccc1)[C@H]2c1ccccc1` [3,9-dibenzyl-1,7-dihydroxymethyl-6,12-diphenyl-3,9-diazahexacyclo[6.4.0.0(2.7)0(4.11)0(5.10)]dodecane] stands 13.3 µM.
